# Laboratory results: ChEMBL document CHEMBL1201861, “Genomics of Drug Sensitity in Cancer screening data, Wellcome Trust Sanger Institute”
# Experiments:
# Assay in all cases: cells
# [1] = test system: KP-N-YS; type: functional, cell-based, Homo sapiens; conditions: Homo sapiens, KP-N-YS;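 note: cell viability assay measuring inhibition of cell line growth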
# Description: SANGER: Inhibition of human KP-N-YS cell growth in a cell viability assay.
# [2] = test system: HCE-T; type: functional, cell-based, Homo sapiens; conditions: Homo sapiens, HCE-T;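 note: cell viability assay read-out, reporting inhibition of HCE-T cell growth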
# Description: SANGER: Inhibition of human HCE-T cell growth in a cell viability assay.
# [3] = test system: RCC10RGB; type: functional, cell-based, Homo sapiens; conditions: Homo sapiens, RCC10RGB;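 note: growth inhibition of human RCC10RGB cells, read out by a cell viability assay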
# Description: SANGER: Inhibition of human RCC10RGB cell growth in a cell viability assay.
# [4] = test system: ONS-76; type: functional, cell-based, Homo sapiens; conditions: Homo sapiens, ONS-76;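 note: growth inhibition of human ONS-76 cells, read out with a cell viability assay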
# Description: SANGER: Inhibition of human ONS-76 cell growth in a cell viability assay.
# [5] = test system: MC116; type: functional, cell-based, Homo sapiens; conditions: Homo sapiens, MC116;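 note: growth inhibition of MC116 cells, read out with a cell viability assay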
# Description: SANGER: Inhibition of human MC116 cell growth in a cell viability assay.
# [6] = test system: KU812 cell line; type: functional, cell-based, Homo sapiens; conditions: Homo sapiens, KU812;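 note: growth inhibition of KU812 cells, read out with a cell viability assay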
# Description: SANGER: Inhibition of human KU812 cell growth in a cell viability assay.
# [7] = test system: GI-1; type: functional, cell-based, Homo sapiens; conditions: Homo sapiens, GI-1;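 note: growth inhibition of human GI-1 cells, measured with a cell viability readout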
# Description: SANGER: Inhibition of human GI-1 cell growth in a cell viability assay.
# [8] = test system: D-263MG; type: functional, cell-based, Homo sapiens; conditions: Homo sapiens, D-263MG
# Description: SANGER: Inhibition of human D-263MG cell growth in a cell viability assay.
# [9] = test system: MZ7-mel; type: functional, cell-based, Homo sapiens; conditions: Homo sapiens, MZ7-mel;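 note: growth inhibition of human MZ7-mel cells, measured by a cell viability assay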
# Description: SANGER: Inhibition of human MZ7-mel cell growth in a cell viability assay.
# [10] = test system: C8166; type: functional, cell-based, Homo sapiens; conditions: Homo sapiens, C8166;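 note: growth inhibition of human C8166 cells measured by a cell viability assay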
# Description: SANGER: Inhibition of human C8166 cell growth in a cell viability assay.
# [11] = test system: CW-2; type: functional, cell-based, Homo sapiens; conditions: Homo sapiens, CW-2;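 note: growth inhibition of CW-2 cells, read out by a cell viability assay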
# Description: SANGER: Inhibition of human CW-2 cell growth in a cell viability assay.
# [12] = test system: JAR; type: functional, cell-based, Homo sapiens; conditions: Homo sapiens, JAR;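 note: growth inhibition of human JAR cells determined with a cell viability assay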
# Description: SANGER: Inhibition of human JAR cell growth in a cell viability assay.
# [13] = test system: LC-2-ad; type: functional, cell-based, Homo sapiens; conditions: Homo sapiens, LC-2-ad;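 note: growth inhibition of human LC-2-ad cells, read out with a cell viability assay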
# Description: SANGER: Inhibition of human LC-2-ad cell growth in a cell viability assay.
# [14] = test system: 697; type: functional, cell-based, Homo sapiens; conditions: Homo sapiens
# Description: SANGER: Inhibition of human 697 cell growth in a cell viability assay.
# [15] = test system: LS-513; type: functional, cell-based, Homo sapiens; conditions: Homo sapiens, LS-513
# Description: SANGER: Inhibition of human LS-513 cell growth in a cell viability assay.
# [16] = test system: Lu-65; type: functional, cell-based, Homo sapiens; conditions: Homo sapiens, Lu-65;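 note: growth inhibition of Lu-65 cancer cells, read out by a cell viability assay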
# Description: SANGER: Inhibition of human LU-65 cell growth in a cell viability assay.
# [17] = test system: SK-UT-1; type: functional, cell-based, Homo sapiens; conditions: Homo sapiens, SK-UT-1;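 note: growth inhibition of SK-UT-1 cells, measured by a cell viability assay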
# Description: SANGER: Inhibition of human SK-UT-1 cell growth in a cell viability assay.
# [18] = test system: NKM-1; type: functional, cell-based, Homo sapiens; conditions: Homo sapiens, NKM-1;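 note: growth inhibition of NKM-1 cells, read out with a cell viability assay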
# Description: SANGER: Inhibition of human NKM-1 cell growth in a cell viability assay.
# [19] = test system: TE-1; type: functional, cell-based, Homo sapiens; conditions: Homo sapiens, TE-1;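 note: growth inhibition of the human TE-1 cell line, read out with a cell viability assay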
# Description: SANGER: Inhibition of human TE-1 cell growth in a cell viability assay.
# [20] = test system: Calu-6; type: functional, cell-based, Homo sapiens; conditions: Homo sapiens, Calu-6;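 note: growth of human Calu-6 cells, read out by a cell viability assay, IC50 marking inhibition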
# Description: SANGER: Inhibition of human Calu-6 cell growth in a cell viability assay.
# [21] = test system: MMAC-SF; type: functional, cell-based, Homo sapiens; conditions: Homo sapiens, MMAC-SF;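 note: growth inhibition of human MMAC-SF cells, read out with a cell viability assay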
# Description: SANGER: Inhibition of human MMAC-SF cell growth in a cell viability assay.
# [22] = test system: NB5; type: functional, cell-based, Homo sapiens; conditions: Homo sapiens, NB5;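 note: growth inhibition of NB5 cells, read out as cell viability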
# Description: SANGER: Inhibition of human NB5 cell growth in a cell viability assay.
# [23] = test system: NB12; type: functional, cell-based, Homo sapiens; conditions: Homo sapiens, NB12;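 note: growth inhibition of human NB12 cells, read out by a cell viability assay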
# Description: SANGER: Inhibition of human NB12 cell growth in a cell viability assay.
# [24] = test system: L-428; type: functional, cell-based, Homo sapiens; conditions: Homo sapiens, L-428
# Description: SANGER: Inhibition of human L-428 cell growth in a cell viability assay.
# [25] = test system: HuTu80; type: functional, cell-based, Homo sapiens, HUTU-80; conditions: Homo sapiens, HuTu80;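 note: growth inhibition of HuTu80 human cells, determined with a cell viability readout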
# Description: SANGER: Inhibition of human HUTU-80 cell growth in a cell viability assay.
# [26] = test system: SNB-75; type: functional, cell-based, Homo sapiens; conditions: Homo sapiens, SNB-75;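 note: cell viability assay measuring growth inhibition of human SNB-75 cells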
# Description: SANGER: Inhibition of human SNB75 cell growth in a cell viability assay.
# [27] = test system: OMC-1; type: functional, cell-based, Homo sapiens; conditions: Homo sapiens, OMC-1;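 note: growth inhibition of the OMC-1 cell line, measured by a cell viability assay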
# Description: SANGER: Inhibition of human OMC-1 cell growth in a cell viability assay.
# [28] = test system: MLMA; type: functional, cell-based, Homo sapiens; conditions: Homo sapiens, MLMA;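 note: growth inhibition of MLMA cells (human), determined through a cell viability readout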
# Description: SANGER: Inhibition of human MLMA cell growth in a cell viability assay.
# [29] = test system: A101D; type: functional, cell-based, Homo sapiens; conditions: Homo sapiens, A101D;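 note: growth inhibition of the cell line, measured with a viability assay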
# Description: SANGER: Inhibition of human A101D cell growth in a cell viability assay.
# [30] = test system: NB69; type: functional, cell-based, Homo sapiens; conditions: Homo sapiens, NB69;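 note: growth inhibition of NB69 cells, determined by a cell viability assay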
# Description: SANGER: Inhibition of human NB69 cell growth in a cell viability assay.
# [31] = test system: ACN; type: functional, cell-based, Homo sapiens; conditions: Homo sapiens, ACN;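 note: growth inhibition of the human ACN cell line, read out via cell viability testing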
# Description: SANGER: Inhibition of human ACN cell growth in a cell viability assay.
# [32] = test system: TE-8; type: functional, cell-based, Homo sapiens; conditions: Homo sapiens, TE-8;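 note: growth inhibition of TE-8 cells, measured with a cell viability readout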
# Description: SANGER: Inhibition of human TE-8 cell growth in a cell viability assay.
# [33] = test system: GT3TKB; type: functional, cell-based, Homo sapiens; conditions: Homo sapiens, GT3TKB;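 note: growth inhibition of the cell line, read out with a cell viability assay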
# Description: SANGER: Inhibition of human GT3TKB cell growth in a cell viability assay.
# [34] = test system: MHH-PREB-1; type: functional, cell-based, Homo sapiens; conditions: Homo sapiens, MHH-PREB-1;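 note: cell viability assay measuring inhibition of proliferation of human MHH-PREB-1 cells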
# Description: SANGER: Inhibition of human MHH-PREB-1 cell growth in a cell viability assay.
# [35] = test system: KG-1; type: functional, cell-based, Homo sapiens; conditions: Homo sapiens, KG-1;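 note: growth inhibition of KG-1 cells, read out by a cell viability assay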
# Description: SANGER: Inhibition of human KG-1 cell growth in a cell viability assay.
# [36] = test system: KURAMOCHI; type: functional, cell-based, Homo sapiens; conditions: Homo sapiens, KURAMOCHI;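 note: growth inhibition of KURAMOCHI cells, read out with a cell viability assay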
# Description: SANGER: Inhibition of human KURAMOCHI cell growth in a cell viability assay.
# [37] = test system: KE-37; type: functional, cell-based, Homo sapiens; conditions: Homo sapiens, KE-37;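 note: growth inhibition of KE-37 cells, read out with a cell viability assay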
# Description: SANGER: Inhibition of human KE-37 cell growth in a cell viability assay.
# [38] = test system: LB2518-MEL; type: functional, cell-based, Homo sapiens; conditions: Homo sapiens, LB2518-MEL;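 note: growth inhibition of human LB2518-MEL cells, measured with a cell viability assay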
# Description: SANGER: Inhibition of human LB2518-MEL cell growth in a cell viability assay.
# [39] = test system: SF-539; type: functional, cell-based, Homo sapiens; conditions: Homo sapiens, SF-539;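 note: Read-out is a cell viability assay, with IC50 reflecting inhibition of cell growth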
# Description: SANGER: Inhibition of human SF539 cell growth in a cell viability assay.
# [40] = test system: COLO-668; type: functional, cell-based, Homo sapiens; conditions: Homo sapiens, COLO-668
# Description: SANGER: Inhibition of human COLO-668 cell growth in a cell viability assay.
# [41] = test system: LNCaP-Clone-FGC; type: functional, cell-based, Homo sapiens; conditions: Homo sapiens, LNCaP-Clone-FGC
# Description: SANGER: Inhibition of human LNCaP-Clone-FGC cell growth in a cell viability assay.
# [42] = test system: MZ2-MEL; type: functional, cell-based, Homo sapiens; conditions: Homo sapiens, MZ2-MEL;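 note: growth inhibition of MZ2-MEL cells read out with a cell viability assay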
# Description: SANGER: Inhibition of human MZ2-MEL cell growth in a cell viability assay.
# [43] = test system: DEL; type: functional, cell-based, Homo sapiens; conditions: Homo sapiens, DEL;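 note: growth inhibition of the human DEL cell line, read out with a cell viability assay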
# Description: SANGER: Inhibition of human DEL cell growth in a cell viability assay.
# [44] = test system: HT; type: functional, cell-based, Homo sapiens; conditions: Homo sapiens, HT
# Description: SANGER: Inhibition of human HT cell growth in a cell viability assay.
# [45] = test system: SW872; type: functional, cell-based, Homo sapiens; conditions: Homo sapiens, SW872;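 note: growth inhibition of SW872 cells, read out by a viability assay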
# Description: SANGER: Inhibition of human SW872 cell growth in a cell viability assay.
# [46] = test system: JVM-2; type: functional, cell-based, Homo sapiens; conditions: Homo sapiens, JVM-2;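 note: growth inhibition of JVM-2 cells determined by a cell viability assay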
# Description: SANGER: Inhibition of human JVM-2 cell growth in a cell viability assay.
# [47] = test system: LU-134-A; type: functional, cell-based, Homo sapiens; conditions: Homo sapiens, LU-134-A
# Description: SANGER: Inhibition of human LU-134-A cell growth in a cell viability assay.
# [48] = test system: DB; type: functional, cell-based, Homo sapiens; conditions: Homo sapiens, DB
# Description: SANGER: Inhibition of human DB cell growth in a cell viability assay.
# [49] = test system: NCI-H446; type: functional, cell-based, Homo sapiens; conditions: Homo sapiens, NCI-H446;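 note: growth inhibition of NCI-H446 cells determined by a cell viability assay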
# Description: SANGER: Inhibition of human NCI-H446 cell growth in a cell viability assay.
smiles,measurement,setting,value
Nc1cccc2c1CN(C1CCC(=O)NC1=O)C2=O (centres undefined) [LENALIDOMIDE],IC50,[1],> 5 µM
same,IC50,[2],> 5 µM
same,IC50,[3],> 5 µM
same,IC50,[4],> 5 µM
same,IC50,[5],> 5 µM
same,IC50,[6],> 5 µM
same,IC50,[7],> 5 µM
same,IC50,[8],> 5 µM
same,IC50,[9],> 5 µM
same,IC50,[10],> 5 µM
same,IC50,[11],> 5 µM
same,IC50,[12],2.97 µM
same,IC50,[13],> 5 µM
same,IC50,[14],> 5 µM
same,IC50,[15],> 5 µM
same,IC50,[16],> 5 µM
same,IC50,[17],> 5 µM
same,IC50,[18],> 5 µM
same,IC50,[19],> 5 µM
same,IC50,[20],> 5 µM
same,IC50,[21],> 5 µM
same,IC50,[22],> 5 µM
same,IC50,[23],> 5 µM
same,IC50,[24],> 5 µM
same,IC50,[25],> 5 µM
same,IC50,[26],> 5 µM
same,IC50,[27],> 5 µM
same,IC50,[28],> 5 µM
same,IC50,[29],> 5 µM
same,IC50,[30],> 5 µM
same,IC50,[31],> 5 µM
same,IC50,[32],> 5 µM
same,IC50,[33],> 5 µM
same,IC50,[34],> 5 µM
same,IC50,[35],> 5 µM
same,IC50,[36],> 5 µM
same,IC50,[37],> 5 µM
same,IC50,[38],> 5 µM
same,IC50,[39],> 5 µM
same,IC50,[40],> 5 µM
same,IC50,[41],> 5 µM
same,IC50,[42],> 5 µM
same,IC50,[43],> 5 µM
same,IC50,[44],> 5 µM
same,IC50,[45],> 5 µM
same,IC50,[46],> 5 µM
same,IC50,[47],> 5 µM
same,IC50,[48],> 5 µM
same,IC50,[49],> 5 µM
